Reference: patent US20180353460A1, “METHODS OF TREATING UROLOGICAL DISORDERS USING SARMs” (priority 2014, published 2018)
Where two headings read alike, the source gives them in different places.

Legend:
levator ani muscle [1] = test: Levator ani muscle weight in castrated rats treated subcutaneously for 14 days; format: in vivo, rat; conditions: castrated Sprague Dawley rats, subcutaneous, 3 mg/day
Text: At sacrifice, organs were weighed and expressed as raw organ weights. Values are expressed as average±S.D. Increased size and strength of pelvic floor muscles is one mechanism by which SARMs are believed to affect UI.
At sacrifice, organs were weighed and expressed as raw organ weights. Values are expressed as average±S.D.

[2] = system: prostate, seminal vesicles and levator ani muscle; test: Androgenic and anabolic activity in castrated immature male rats, subcutaneous osmotic pumps, 14 days; format: in vivo, rat
Method: Immature male Sprague-Dawley rats, weighing 90 to 100 g, were purchased from Harlan Biosciences (Indianapolis, Ind.). The animals were maintained on a 12 hour light-dark cycle with food and water available ad libitum.
Rats were randomly distributed into treatment groups groups. One day prior to the start of drug treatment, animals were individually removed from the cage, weighed and anesthetized with an intraperitoneal dose of ketamine/xylazine (87/13 mg/kg; approximately 1 mL per kg). When appropriately anesthetized (i.e., no response to toe pinch), the animals' ears were marked for identification purposes. Animals were then placed on a sterile pad and their abdomen and scrotum washed with betadine and 70% alcohol. The testes were removed via a midline scrotal incision, with sterile suture being used to ligate supra-testicular tissue prior to surgical removal of each testis. The surgical wound site was closed with sterile stainless steel wound clips, and the site cleaned with betadine. The animals were allowed to recover on a sterile pad (until able to stand) and then returned to their cage.
Twenty-four hours later, animals were re-anesthetized with ketamine/xylazine, and an Alzet osmotic pump(s) (model 2002) was placed subcutaneouly in the scapular region. In this instance, the scapular region was shaved and cleaned (betadine and alcohol) and a small incision (1 cm) made using a sterile scalpel. The osmotic pump was inserted and the wound closed with a sterile stainless steel wound clip. Animals were allowed to recover and were returned to their cage. Osmotic pumps contained the appropriate treatment dissolved in polyethylene glycol 300 (PEG300). Osmotic pumps were filled with the appropriate solution one day prior to implantation. Animals were monitored daily for signs of acute toxicity to drug treatment (e.g., lethargy, rough coat).
After 14 days of drug treatment, rats were anesthetized with ketamine/xylazine. Animals were then sacrificed by exsanguinations under anesthesia. A blood sample was collected by venipuncture of the abdominal aorta, and submitted for complete blood cell analysis. A portion of the blood was placed in a separate tube, centrifuged at 12,000 g for 1 minute, and the plasma layer removed and frozen at −20° C. The ventral prostates, seminal vesicles, levator ani muscle, liver, kidneys, spleen, lungs, and heart were removed, cleared of extraneous tissue, weighed, and placed in vials containing 10% neutral buffered formalin. Preserved tissues were sent for histopathological analysis.
For data analysis, the weights of all organs were normalized to body weight, and analyzed for any statistical significant difference by single-factor ANOVA. The weights of prostate and seminal vesicle were used as indexes for evaluation of androgenic activity, and the levator ani muscle weight was used to evaluate the anabolic activity.

AR = molecular target: T1, AR (Homo sapiens, UniProt P10275); test: biochemical; format: binding
T1 sequence (P10275 1-920): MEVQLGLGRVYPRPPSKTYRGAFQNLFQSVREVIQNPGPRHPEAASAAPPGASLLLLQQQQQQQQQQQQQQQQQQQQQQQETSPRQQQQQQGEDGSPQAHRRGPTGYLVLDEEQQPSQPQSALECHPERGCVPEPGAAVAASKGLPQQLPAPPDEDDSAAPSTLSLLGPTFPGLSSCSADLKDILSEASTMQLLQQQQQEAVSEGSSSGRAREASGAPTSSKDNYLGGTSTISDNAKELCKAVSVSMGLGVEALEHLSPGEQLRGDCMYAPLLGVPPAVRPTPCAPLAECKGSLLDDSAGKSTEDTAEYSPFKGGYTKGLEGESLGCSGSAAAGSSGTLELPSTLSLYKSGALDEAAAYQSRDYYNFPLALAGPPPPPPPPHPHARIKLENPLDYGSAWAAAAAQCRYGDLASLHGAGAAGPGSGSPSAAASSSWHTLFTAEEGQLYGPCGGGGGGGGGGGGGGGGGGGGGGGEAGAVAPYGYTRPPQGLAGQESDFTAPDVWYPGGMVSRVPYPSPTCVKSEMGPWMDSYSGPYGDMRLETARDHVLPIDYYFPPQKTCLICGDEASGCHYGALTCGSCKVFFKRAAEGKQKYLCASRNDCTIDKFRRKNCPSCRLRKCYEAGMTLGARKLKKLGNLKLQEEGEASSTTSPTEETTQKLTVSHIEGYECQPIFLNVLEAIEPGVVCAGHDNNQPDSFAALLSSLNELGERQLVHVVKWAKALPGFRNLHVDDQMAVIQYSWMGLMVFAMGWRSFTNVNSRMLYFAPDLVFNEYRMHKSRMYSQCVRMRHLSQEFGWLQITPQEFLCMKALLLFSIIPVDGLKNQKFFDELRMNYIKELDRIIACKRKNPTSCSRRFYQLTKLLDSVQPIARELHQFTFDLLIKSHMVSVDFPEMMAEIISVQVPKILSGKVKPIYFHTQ

[3] = system: female rats with experimentally induced stress urinary incontinence; conditions: rat models of SUI; cited from earlier work
levator ani muscle [4] = test: Hershberger assays of compounds H-1 to H-4; format: in vivo, rat; conditions: calculated in Win Non-Lin
Method: FIG. 3 depicts results of Hershberger assays of compounds of the invention as described in Example 17. AUC is area under the concentration-time curve.
Hershberger assays as described above for Formulas VIII-XIV were also performed on compounds H-1, H-2, H-3, & H-4, as reported in FIG. 3, along with AR binding data in some cases in Table 11. The reported Emax values were calculated in Win Non-Lin®.

[5] = castrated rats, 0.10 mg/day, 14 days
[6] = castrated rats, 0.50 mg/day, 14 days
[7] = castrated rats, 0.75 mg/day, 14 days
[8] = castrated rats, 1.00 mg/day, 14 days
[9] = compared with testosterone propionate

C[C@](O)(COc1ccc(F)cc1)C(=O)Nc1ccc(C#N)c(C(F)(F)F)c1 [Compound X, (S)—N-(4-Cyano-3-(trifluoromethyl)phenyl)-3-(4-fluorophenoxy)-2-hydroxy-2-methylpropanamide]
levator ani muscle weight (levator ani muscle [1]): elicits hypertrophy of the levator ani muscle
Levator Ani organ weight (Mean ± S.D.) [2, 5]: 54.9 ± 5.77 % of intact
Prostate organ weight (Mean ± S.D.) [2, 5]: 6.4 ± 0.82 % of intact
Seminal Vesicles organ weight (Mean ± S.D.) [2, 5]: 8.8 ± 1.18 % of intact
Levator Ani organ weight (Mean ± S.D.) [2, 6]: 55.0 ± 9.23 % of intact
Prostate organ weight (Mean ± S.D.) [2, 6]: 6.2 ± 0.56 % of intact
Seminal Vesicles organ weight (Mean ± S.D.) [2, 6]: 9.3 ± 1.57 % of intact
Levator Ani organ weight (Mean ± S.D.) [2, 7]: 68.9 ± 8.46 % of intact
Prostate organ weight (Mean ± S.D.) [2, 7]: 7.6 ± 0.74 % of intact
Seminal Vesicles organ weight (Mean ± S.D.) [2, 7]: 9.8 ± 3.65 % of intact
Levator Ani organ weight (Mean ± S.D.) [2, 8]: 75.2±9.51 % of intact
Prostate organ weight (Mean ± S.D.) [2, 8]: 8.7±1.39 % of intact
Seminal Vesicles organ weight (Mean ± S.D.) [2, 8]: 10.7±0.91 % of intact
Ki (AR; read-out: binding affinity): 3.3 ± 0.08 nM

C[C@]12CC[C@H]3[C@@H](CCC4=CC(=O)CC[C@@]43C)[C@@H]1CC[C@@H]2O [Testosterone, testosterone]
leak point pressures and size of myofibers [3]: improve leak point pressures and significantly increase the size of myofibers

C[C@](O)(COc1ccc(Br)cc1)C(=O)Nc1ccc([N+](=O)[O-])c(C(F)(F)F)c1 [Compound H-3]
Emax in levator ani muscle (levator ani muscle [4]): 64 ± 4 % of intact control
Ki (AR; read-out: Ki): 13 ± 2 nM

C[C@](O)(COc1ccc(Cl)cc1)C(=O)Nc1ccc(C#N)c(C(F)(F)F)c1 [Compound XI, (S)—N-(4-Cyano-3-(trifluoromethyl)phenyl)-3-(4-chlorophenoxy)-2-hydroxy-2-methylpropanamide]
dose able to maintain levator ani muscle weight of castrated animals at the level of intact animals ([2]; castrated rats, 14 days): 0.3 mg/day
weights of prostate, seminal vesicle and levator ani muscle ([2]; castrated rats, 14 days, FIG. 2): dose-dependent increases in prostate, seminal vesicle and levator ani muscle weights
potency and intrinsic activity in increasing the weight of levator ani muscle [2, 9]: greater potency and intrinsic activity
potency and intrinsic activity in increasing the weights of prostate and seminal vesicle [2, 9]: lower potency and intrinsic activity
Ki (AR; read-out: binding affinity): 3.4 ± 0.08 nM
